# Laboratory results: patent US9730938B2, “Bruton's tyrosine kinase inhibitor combinations and uses thereof” (Pharmacyclics LLC, priority 2014, dated 2017)
# Assays:
# OCI-LY-3 [1] = test: Combined drug treatment cell viability, CellTiter-Glo assay (Example 1); assay type: cell-based; conditions: IDH1i 10 uM / MALT1i 5 uM / medium alone, 3 days
# Procedure: DLBCL cells at either 1×10^4 cells or 2×10^4 cells were plated onto each well of a 96-W plate (Table 1).
# The stock solutions for the IDH1 inhibitor AGI5198 and the MALT1 inhibitor MI-2 were each prepared at 50 mM concentration.
# The 96-W plate was then incubated for 3 days. Cell viability was examined using a CellTiter-Glo assay.
# A 40 μL of CellTiter-Glo reagent was added directly into each well of the 96-W plate. The plate was then shaken on a Shaker (Labsystem Wellmix) at speed 5 for 10-20 min at room temperature. Next, 100 μL of the mixed medium was transferred to a white, non-transparent, flat bottom 96-W plate for assaying. A Flexstation 3 luminometer was used for detecting and measuring the luminescent signals. Measurements were taken at room temperature.
# In general, the combination is described as synergistic (CI<1), additive (CI=1), or antagonistic (CI>1). Synergism is further separated into very strong synergism (<0.1), strong synergism (0.1-0.3), synergism (0.3-0.7), moderate synergism (0.7-0.85), and slight synergism (0.85-0.9).
# OCI-LY-3 [2] = test: Combined drug treatment cell viability, CellTiter-Glo assay (Example 2); assay type: cell-based; conditions: JAK3 10 μM / MCL-1 3 μM / medium alone, 3 days
# TMD8 = test: as above; assay type: cell-based; conditions: JAK3 10 μM / MCL-1 3 μM / medium alone, 3 days
# U2932 = test: as above; assay type: cell-based; conditions: JAK3 10 μM / MCL-1 3 μM / medium alone, 3 days
# [3] = tested on: TMD8 cells expressing PIM1 S97N; test: Cell growth of modified TMD8 cells treated with ibrutinib; conditions: Homo sapiens
# OCI-LY-10 = test: Combined drug treatment cell viability, CellTiter-Glo assay (Example 2); assay type: cell-based; conditions: JAK3 10 μM / MCL-1 3 μM / medium alone, 3 days
# [4] = tested on: TMD8 cells expressing PIM1 L2V; test: Cell growth of modified TMD8 cells treated with ibrutinib; conditions: Homo sapiens
# [5] = tested on: TMD8 cells expressing PIM1 P81S; test: as above; conditions: Homo sapiens
# SU-DHL-2 = test: Combined drug treatment cell viability, CellTiter-Glo assay (Example 2); assay type: cell-based; conditions: JAK3 10 μM / MCL-1 3 μM / medium alone, 3 days
structure (smiles),measurement,setting,value
"C=CC(=O)N1CCC[C@@H](n2nc(-c3ccc(Oc4ccccc4)cc3)c3c(N)ncnc32)C1 [ibrutinib, 1-((R)-3-(4-amino-3-(4-phenoxyphenyl)-1H-pyrazolo[3,4-d]pyrimidin-1-yl)piperidin-1-yl)prop-2-en-1-one]",luminescence (CellTiter-Glo),OCI-LY-3 [1]; ibrutinib 80 nM,68972.20
same,luminescence (CellTiter-Glo),OCI-LY-3 [1]; ibrutinib 400 nM,64472.02
same,luminescence (CellTiter-Glo),OCI-LY-3 [1]; ibrutinib 2000 nM,55749.79
same,luminescence (CellTiter-Glo),OCI-LY-3 [1]; ibrutinib 10000 nM,63477.51
same,luminescence (CellTiter-Glo),OCI-LY-3 [2]; ibrutinib 0.0512 nM,80095.49
same,luminescence (CellTiter-Glo),OCI-LY-3 [2]; ibrutinib 0.256 nM,81910.97
same,luminescence (CellTiter-Glo),OCI-LY-3 [2]; ibrutinib 1.28 nM,89730.66
same,luminescence (CellTiter-Glo),OCI-LY-3 [2]; ibrutinib 6.4 nM,81709.84
same,luminescence (CellTiter-Glo),OCI-LY-3 [2]; ibrutinib 32 nM,80596.96
same,luminescence (CellTiter-Glo),OCI-LY-3 [2]; ibrutinib 160 nM,84190.37
same,luminescence (CellTiter-Glo),OCI-LY-3 [2]; ibrutinib 800 nM,82227.41
same,luminescence (CellTiter-Glo),OCI-LY-3 [2]; ibrutinib 20000 nM,69084.64
same,luminescence (CellTiter-Glo),OCI-LY-3 [2]; ibrutinib 40000 nM,75112.98
same,luminescence (CellTiter-Glo),TMD8; ibrutinib 0.0512 nM,28324.66
same,luminescence (CellTiter-Glo),TMD8; ibrutinib 0.256 nM,28516.97
same,luminescence (CellTiter-Glo),TMD8; ibrutinib 1.28 nM,28727.97
same,luminescence (CellTiter-Glo),TMD8; ibrutinib 6.4 nM,28578.40
same,luminescence (CellTiter-Glo),TMD8; ibrutinib 32 nM,28802.75
same,luminescence (CellTiter-Glo),TMD8; ibrutinib 160 nM,29096.55
same,luminescence (CellTiter-Glo),TMD8; ibrutinib 800 nM,25963.61
same,luminescence (CellTiter-Glo),TMD8; ibrutinib 20000 nM,5261.63
same,luminescence (CellTiter-Glo),TMD8; ibrutinib 40000 nM,22488.80
same,luminescence (CellTiter-Glo),U2932; ibrutinib 0.0512 nM,62396.81
same,luminescence (CellTiter-Glo),U2932; ibrutinib 0.256 nM,60528.12
same,luminescence (CellTiter-Glo),U2932; ibrutinib 1.28 nM,60811.50
same,luminescence (CellTiter-Glo),U2932; ibrutinib 6.4 nM,58640.71
same,luminescence (CellTiter-Glo),U2932; ibrutinib 32 nM,57009.94
same,luminescence (CellTiter-Glo),U2932; ibrutinib 160 nM,55090.45
same,luminescence (CellTiter-Glo),U2932; ibrutinib 800 nM,54579.83
same,luminescence (CellTiter-Glo),U2932; ibrutinib 20000 nM,18900.83
same,luminescence (CellTiter-Glo),U2932; ibrutinib 40000 nM,55951.28
same,EC50,[3],> 1 µM
same,luminescence (CellTiter-Glo),OCI-LY-10; ibrutinib 0.0512 nM,46968.14
same,luminescence (CellTiter-Glo),OCI-LY-10; ibrutinib 1.28 nM,28222.33
same,luminescence (CellTiter-Glo),OCI-LY-10; ibrutinib 6.4 nM,17144.41
same,luminescence (CellTiter-Glo),OCI-LY-10; ibrutinib 32 nM,14003.51
same,luminescence (CellTiter-Glo),OCI-LY-10; ibrutinib 160 nM,13712.84
same,luminescence (CellTiter-Glo),OCI-LY-10; ibrutinib 800 nM,14708.66
same,luminescence (CellTiter-Glo),OCI-LY-10; ibrutinib 20000 nM,14261.89
same,luminescence (CellTiter-Glo),OCI-LY-10; ibrutinib 40000 nM,15817.53
same,EC50,[4],> 1 µM
same,EC50,[5],> 1 µM
same,luminescence (CellTiter-Glo),SU-DHL-2; ibrutinib 0.0512 nM,168606.0
same,luminescence (CellTiter-Glo),SU-DHL-2; ibrutinib 0.256 nM,180865.8
same,luminescence (CellTiter-Glo),SU-DHL-2; ibrutinib 1.28 nM,185508.3
same,luminescence (CellTiter-Glo),SU-DHL-2; ibrutinib 6.4 nM,178437.4
same,luminescence (CellTiter-Glo),SU-DHL-2; ibrutinib 32 nM,180464.1
same,luminescence (CellTiter-Glo),SU-DHL-2; ibrutinib 160 nM,183505.7
same,luminescence (CellTiter-Glo),SU-DHL-2; ibrutinib 800 nM,181165.6
same,luminescence (CellTiter-Glo),SU-DHL-2; ibrutinib 20000 nM,4650.6
same,luminescence (CellTiter-Glo),SU-DHL-2; ibrutinib 40000 nM,180616.8
